According to patent US20020166149A1, “Sustained totipotent regenerable tissue culture of Arundo donax (Giant Reed) and totipotent tissue and plants produced therefrom” (priority 2001, published 2002):

Columns and labels:
A. donax explants = experiment: Phosphinothricin selection of explants on solid selective medium; type: cell-based, Arundo donax L.; settings: 10 mg/l
Experimental: Cross-sectional segment of immature A. donax inflorescence were prepared and cultivated as described in Example 2. The totipotent tissue was cocultivated with Agrobacterium tumefaciens carrying plasmid pMSF3022, which carried the bar gene for positive selection in plant cells. The gene confers resistance to the antibiotic/herbicide phosphinothricin.
Cocultivation was carried out in 6 ml. of liquid primary culture medium for four days in the dark at room temperature. Explants were then rinsed with liquid medium and placed on solid selective and non-selective control medium containing the antibiotic/herbicide phosphinothricine at 10 mg/l. All medium contained tidarcillin at 400 mg/l to eliminate residual A. tumefaciens. Controls include explants incubated without A. tumefaciens. […] This can be contrasted with control explants (which were not contacted with A. tumefaciens) that were killed by 10 mg/l of phosphinothricin (FIG. 3A). Also shown are control explants that have developed callus in the absence of phosphinothricin (FIG. 3B), and cocultivated explants that have developed callus in the absence of phosphinothricin (FIG. 3D).

A. donax plants (roots) = experiment: Trichloroethene challenge of cloned plants in phytoreactor; type: in vivo, Arundo donax L.; settings: 0.25 mM in hydroponic solution; after recovery period of 3 to 4 weeks
Experimental: Sustained titopotent cultures of A donax were grown as described in Example 2, and cloned plants derived from the titopotent tissues were established in a standard liquid hydroponic solution in plastic tubs (Shown in FIG. 4A). In one phytoreactor tub, trichloroethene (trichloroethylene) was added to a concentration of 0.25 mM. This was believed to be a high concentration of the organic material, because the allowable EPA concentration is 0.005 mg/l.

SMILES: CP(=O)(O)CC[C@H](N)C(=O)O [phosphinothricin]
- effect on explants cocultivated with Agrobacterium tumefaciens (bar gene) (A. donax explants; cocultivated explants): development of herbicide resistant embryogenic tissue
- effect on control explants (A. donax explants; control explants not contacted with A. tumefaciens): killed

SMILES: ClC=C(Cl)Cl [trichloroethene]
- state of roots after challenge (A. donax plants (roots)): fully recovered
